Laboratory results reported in patent US11186534B2, “Derivatives of sulindac can protect normal cells against oxidative damage” (University of South Alabama, priority 2017, dated 2021).

Tests used:
[1] = test system: Retinal pigmented epithelium cells (ARPE-19); assay: Cell viability assay: protection of RPE cells against oxidative damage from TBHP; type: cell-based; conditions: for Cyto-protective activity*: RPE cells, TBHP as oxidizing agent, relative to Sulindac; as to Cyto-protective activity*: key: active = more active than Sulindac; inactive = less active than Sulindac
Experimental: Cultured cells and reagents: Retinal pigmented epithelium cells (ARPE-19) were obtained from American Type Culture Collection (ATCC, Manassas, Va.) and cultured at 37° C. in 5% CO2. All chemicals were purchased from Sigma unless specified.
Cell viability assay: Cells were cultured and assayed for cell viability essentially as described previously (14). ARPE-19 cells were plated at 10,000 cells per well in a 96-well plate. The cells were grown for 18-20 hours, the medium discarded in aseptic conditions and replaced with fresh culture medium containing the indicated drug concentration. The plates were incubated for 24 hours at 37° C. in a 5% CO2 incubator in the presence of sulindac or Compound 9. To examine the treatment effects on oxidative damage to RPE cells, cells were washed and incubated in media without serum with various concentrations of tert-butyl hydroperoxide (TBHP) for an additional 24h. The culture medium was then discarded and the cells were thoroughly rinsed in PBS. Cell viability was determined by using the Cell Titer 96 Aqueous One Cell Proliferation Assay (Promega) according to the manufacturer's instructions. The assay utilizes a tetrazolium compound that is converted into a water-soluble formazan by the action of cellular NADH oxidase activity in metabolically active cells. The formazan was quantified by measuring the absorbance at 490 nm using a colorimetric microtiter plate reader (SpectraMax Plus; Molecular Devices).
In the present studies, a series of compounds were identified as having the ability to protect RPE cells against oxidative damage using tert-butyl hydroperoxide (TBHP), an organic peroxide, as an oxidizing agent (10).

[2] = test system: rat intact hearts (Langendorff model); assay: Langendorff model of ischemia/reperfusion injury, LDH release; type: in vivo, Sprague Dawley rats; conditions: 0.7 mg/kg i.p. daily for 48 h; FIG. 9
Experimental: The ex vivo Langendorff procedure is a well-established preparation used to investigate heart physiology, ischemia/reperfusion injury, and other cardiovascular insults (23, 24; also see, e.g., reference 22). Sprague Dawley rats (275-325g) were administered either no drug or Compound 9 daily (at 0.7 mg/kg) for a total of two days (two administrations in total). Forty-eight hours after the start of drug exposure, hearts were removed and exposed to 45 min no flow ischemia and 2 h reperfusion in the Langendorff model (hearts were first equilibrated in KHB buffer for 10 min and then subjected to 45 min ischemia followed by 2 h reperfusion with KHB buffer), in the absence of drug.
In LDH and TTC assays for the Langendorff Preparation, coronary effluent samples (500 μL) from the Langendorff preparation were obtained upon attachment of excised heart, every 15 min before ischemia, immediately after 45 min ischemia, and at 15 min intervals during reperfusion. LDH was measured (using a Cytotox-96 nonradioactive cytotoxicity assay kit (Promega), with the absorbance read at 490 nm). Immediately upon completion, the heart was sliced into 2-mm cross-sectional pieces and slices were incubated for 30 min with 1% 2,3,5-triphenyl tetrazolium chloride (TTC) stain in Krebs-Henseleit buffer (KHB) (pH=7.4) at 37° C. to distinguish between viable (red) and nonviable (white) tissue. Tissue slices were stored overnight in 10% formaldehyde before measurement of infarct size using NIH-Image J software.
The protective (preconditioning) effect of Compound 9 was evaluated in an art-recognized Langendorff model of ischemia/reperfusion injury. Compound 9 was administered via i.p. injection to test animals daily for two days, and animal hearts were then removed for performance of the Langendorff procedure (described above and known in the art).

cells [3] = conditions: background; cited from earlier work
cells [4] = conditions: background; cited from earlier work; remark: listed apart in the source
COX = conditions: background; cited from earlier work

Row | Compound | Cyto-protective activity* [1] | other results
1 | COc1ccc2c(c1)C(CC(=O)O)=C(C)/C2=C/c1ccc(OC)c(O)c1 [Compound 15, (Z)-2-(1-(3-hydroxy-4-methoxybenzylidene)-5-methoxy-2-methyl-1H-inden-3-yl)acetic acid] | inactive | 
2 | COc1ccc2c(c1)C(CC(=O)O)=C(C)/C2=C/c1ccc(N(C)C)cc1 [Compound 6, (Z)-2-(1-(4-(dimethylamino)benzylidene)-5-methoxy-2-methyl-1H-inden-3-yl)acetic acid] | inactive | 
3 | COc1cc(/C=C2/C(C)=C(CC(=O)O)c3cc(OC)ccc32)cc(OC)c1 [Compound 7, (Z)-2-(1-(3,5-dimethoxybenzylidene)-5-methoxy-2-methyl-1H-inden-3-yl)acetic acid] | inactive | 
4 | COc1ccc2c(c1)C(CC(=O)O)=C(C)/C2=C/c1cc(OC)c(Br)c(OC)c1 [Compound 5, (Z)-2-(1-(4-bromo-3,5-dimethoxybenzylidene)-5-methoxy-2-methyl-1H-inden-3-yl)acetic acid] | inactive | 
5 | COc1ccc2c(c1)C(Cc1nc3cnccc3[nH]1)=C(C)/C2=C/c1cc(OC)c(OC)c(OC)c1 [Compound 19, (Z)-2-((5-methoxy-2-methyl-1-(3,4,5-trimethoxybenzylidene)-1H-inden-3-yl)methyl)-1H-imidazo[4,5-c]pyridine] | inactive | 
6 | CC1=C(CC(=O)O)c2cc(F)ccc2/C1=C\c1ccc([S+](C)[O-])cc1 (centres unmarked) [sulindac] |  | Protective effect during the 45 min ischemia phase [2]: no protective effect; Protective effect during the 2 h reperfusion phase [2]: not as robust; TBHP concentration above which no longer protective for RPE cells ([1]; sulindac at 200 μM, FIG. 2): above 300 μM
7 | COc1cc2c(cc1OC)/C(=C\c1ccc(N(C)C)cc1)C(C)=C2CC(=O)NCc1ccco1 [Compound 22, (Z)-2-(1-(4-(dimethylamino)benzylidene)-5,6-dimethoxy-2-methyl-1H-inden-3-yl)-N-(furan-2-ylmethyl)acetamide] | inactive | 
8 | COc1cc(/C=C2/C(C)=C(CC(=O)O)c3cc(F)ccc32)cc(OC)c1OC [Compound 12, (Z)-2-(5-fluoro-2-methyl-1-(3,4,5-trimethoxybenzylidene)-1H-inden-3-yl)acetic acid] | inactive | 
9 | COc1cc(/C=C2/C(C)=C(CC(=O)O)c3cc(OC)c(OC)cc32)cc(OC)c1 [Compound 17, (Z)-2-(1-(3,5-dimethoxybenzylidene)-5,6-dimethoxy-2-methyl-1H-inden-3-yl)acetic acid] | inactive | 
10 | COc1cc2c(cc1OC)/C(=C\c1cc(OC)c(O)c(OC)c1)C(C)=C2CC(=O)NCc1ccco1 [Compound 18, (Z)-N-(furan-2-ylmethyl)-2-(1-(4-hydroxy-3,5-dimethoxybenzylidene)-5,6-dimethoxy-2-methyl-1H-inden-3-yl)acetamide] | inactive | 
11 | COc1ccc2c(c1)C(CC(=O)O)=C(C)/C2=C/c1ccc(SC(F)(F)F)cc1 [Compound 4, (Z)-2-(5-methoxy-2-methyl-1-(4-((trifluoromethyl)thio)benzylidene)-1H-inden-3-yl)acetic acid] | inactive | 
12 | COc1ccc2c(c1)C(CC(=O)O)=C(C)/C2=C/c1ccc(OCc2ccccc2)cc1 [Compound 10, (Z)-2-(1-(4-(benzyloxy)benzylidene)-5-methoxy-2-methyl-1H-inden-3-yl)acetic acid] | active | Effectiveness in protecting RPE cells from TBHP compared with sulindac ([1]; compound at 25 μM vs sulindac 200 μM, FIG. 2): equally effective as sulindac; Fold lower effective concentration relative to sulindac (RPE cell protection) ([1]; sulindac 200 μM, Compound 10 at 25 μM, Compound 9 at 10 μM): 8 ×
13 | COc1cc(/C=C2/C(C)=C(CC(=O)O)c3cc(C)ccc32)cc(OC)c1OC [Compound 8, (Z)-2-(2,5-dimethyl-1-(3,4,5-trimethoxybenzylidene)-1H-inden-3-yl)acetic acid] | inactive | 
14 | CC1=C(CC(=O)O)c2cc(F)ccc2/C1=C\c1ccc(S(C)(=O)=O)cc1 [Sulindac sulfone] |  | Activity in protecting cells against oxidative damage relative to sulindac (cells [3]): more active than sulindac; Toxicity to cells relative to sulindac (cells [4]): significantly more toxic; COX inhibitory activity (COX): no COX inhibitory activity
15 | COc1ccc2c(c1)C(CC(=O)O)=C(C)/C2=C/c1cc(Br)c(O)c(OC)c1 [Compound 16, (Z)-2-(1-(3-bromo-4-hydroxy-5-methoxybenzylidene)-5-methoxy-2-methyl-1H-inden-3-yl)acetic acid] | inactive | 
16 | CC1=C(CC(=O)[O-])c2cc(F)ccc2/C1=C\c1ccc(N(C)C)cc1.[Na+] [Compound 2, sodium (Z)-2-(1-(4-(dimethylamino)benzylidene)-5-fluoro-2-methyl-1H-inden-3-yl)acetate] | inactive | 
17 | COc1ccc2c(c1)C(CC(=O)O)=C(C)/C2=C/c1cc(OC)c(O)c(OC)c1 [Compound 23, (Z)-2-(1-(4-hydroxy-3,5-dimethoxybenzylidene)-5-methoxy-2-methyl-1H-inden-3-yl)acetic acid] | inactive | 
18 | COc1cc2c(cc1OC)/C(=C\c1ccc3c(c1)OCO3)C(C)=C2CC(=O)O [Compound 14, (Z)-2-(1-(benzo[d][1,3]dioxol-5-ylmethylene)-5,6-dimethoxy-2-methyl-1H-inden-3-yl)acetic acid] | inactive | 
19 | COc1cc2c(cc1OC)/C(=C\c1cc(OC)c(OC)c(OC)c1)C(C)=C2CC(=O)NCc1ccco1 [Compound 20, (Z)-2-(5,6-dimethoxy-2-methyl-1-(3,4,5-trimethoxybenzylidene)-1H-inden-3-yl)-N-(furan-2-ylmethyl)acetamide] | inactive | 
20 | COc1cc(/C=C2/C(C)=C(CC(=O)NCc3ccco3)c3cc(OC)c(OC)cc32)cc(OC)c1 [Compound 21, (Z)-2-(1-(3,5-dimethoxybenzylidene)-5,6-dimethoxy-2-methyl-1H-inden-3-yl)-N-(furan-2-ylmethyl)acetamide] | inactive | 
21 | COc1ccc2c(c1)C(CC(=O)O)=C(C)/C2=C/c1ccc(O)c(OC)c1 [Compound 13, (Z)-2-(1-(4-hydroxy-3-methoxybenzylidene)-5-methoxy-2-methyl-1H-inden-3-yl)acetic acid] | inactive | 
22 | COc1ccc2c(c1)/C(=C\c1cc(OC)c(OC)c(OC)c1)C(C)=C2CC(=O)O [Compound 3, (Z)-2-(6-methoxy-2-methyl-1-(3,4,5-trimethoxybenzylidene)-1H-inden-3-yl)acetic acid] | inactive | 
23 | COc1ccc2c(c1)C(CC(=O)O)=C(C)/C2=C/c1cc(OC)c(OC)c(OC)c1 [Compound 11, (Z)-2-(5-methoxy-2-methyl-1-(3,4,5-trimethoxybenzylidene)-1H-inden-3-yl)acetic acid] | inactive | 
